Measurements reported in PMC11020070, “Discovery of Protease-Activated Receptor 4 (PAR4)-Tethered Ligand Antagonists Using Ultralarge Virtual Screening” (ACS Pharmacology & Translational Science, 2024).
Entries after “also recorded” stand apart in the source; their conditions may differ.

Molecular target: T1, PAR4 (Homo sapiens, UniProt Q96RI0)
T1 sequence (Q96RI0 18-385): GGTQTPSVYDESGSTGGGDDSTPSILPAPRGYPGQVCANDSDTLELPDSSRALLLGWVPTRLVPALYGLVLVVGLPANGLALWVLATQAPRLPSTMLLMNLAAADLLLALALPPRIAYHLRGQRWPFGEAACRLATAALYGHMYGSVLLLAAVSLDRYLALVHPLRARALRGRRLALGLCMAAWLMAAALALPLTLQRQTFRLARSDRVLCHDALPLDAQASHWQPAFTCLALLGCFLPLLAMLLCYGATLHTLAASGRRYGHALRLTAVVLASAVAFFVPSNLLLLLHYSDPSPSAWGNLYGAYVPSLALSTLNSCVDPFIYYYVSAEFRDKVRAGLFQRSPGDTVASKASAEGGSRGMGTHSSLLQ
Assay: Human platelet activation by PAR4 agonist peptide (PAR4-AP, AYPGKF)
Format: cell-based
Set-up: endogenous in cells; host or cells: platelets
Details: 10 μM compound, 200 μM AYPGKF
Protocol: To test the antagonistic effect of the compounds on PAR4, a flow cytometry assay of human platelets was employed. Each compound was screened at 10 μM in human platelets using flow cytometry for GPIIbIIIa activation (PAC1) and P-selectin (CD62p) expression as previously described.[4] Activation of GPIIbIIIa allows interaction with divalent fibrinogen or multivalent von Willebrand factor, leading to platelet aggregation.[41] PAR4 stimulation also triggers α-granule secretion containing P-selectin.[5] […] Platelets were treated with each test compound or vehicle control DMSO before activating with γ-thrombin (100 nM) or PAR4 agonist peptide mimetic (200 μM, “PAR4-AP” AYPGKF) for 30 min. γ-thrombin activates PAR4 but not PAR1.[42] […]
Activation of washed human platelets was monitored by flow cytometry for the detection of PAC1 (GPIIbIIIa activation) and CD62p (P-selectin expression) binding as previously described.[4] […] Platelets were collected, counted on a Z1 Coulter Particle Counter (Beckman Coulter, Brea, CA), and diluted in TBB to 1.5 × 10^7 platelets/mL. […] Data were collected on a three-laser BD LSRFortessa (Becton Dickinson) and analyzed with FlowJo software (FlowJo LLC, Ashland, OR). The mean fluorescence intensity (geometric) of PE and FITC was determined from 30,000 events after compensation correction. […]

Cc1nc(NC(=O)c2cc(-c3ccccc3)n(-c3ccccc3)n2)n[nH]1 [Compound 7]
inhibition of PAR4 agonist peptide activation: not inhibiting; also recorded: did not inhibit
